Assay results as given in the supplement of paper PMC10307832.

Tests used:
Experiment in all cases: relative viability (nuclei count vs DMSO), 5 days (fraction); higher = more cells survive
AZ505 + Foretinib = compound: C1CCC(CC1)N(CCNCCC2=C3C(=C(C=C2)O)NC(=O)CO3)C(=O)CCNCCC4=CC(=C(C=C4)Cl)Cl [AZ505] + COc1cc2c(Oc3ccc(NC(=O)C4(C(=O)Nc5ccc(F)cc5)CC4)cc3F)ccnc2cc1OCCCN1CCOCC1 [Foretinib] (partner 0.25 µM)
How it was run: (§1)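 Five library-drug doses in √10 steps were combined with a fixed anchor-drug dose, or a single drug was given alone, by pin tool to lung cancer cell lines in 1536-well plates the day after seeding. Nuclei were stained and counted after 5 days. Relative viability is the nuclei count in treated wells over that in vehicle wells, taken as the median of duplicate plates.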

Dactolisib + Trametinib = compound: Cn1c(=O)n(-c2ccc(C(C)(C)C#N)cc2)c2c3cc(-c4cnc5ccccc5c4)ccc3ncc21 [Dactolisib] + CC(=O)Nc1cccc(-n2c(=O)n(C3CC3)c(=O)c3c(Nc4ccc(I)cc4F)n(C)c(=O)c(C)c32)c1 [Trametinib] (partner 0.02 µM)
How it was run: as §1

AZ505 + Vorinostat = compound: C1CCC(CC1)N(CCNCCC2=C3C(=C(C=C2)O)NC(=O)CO3)C(=O)CCNCCC4=CC(=C(C=C4)Cl)Cl [AZ505] + O=C(CCCCCCC(=O)Nc1ccccc1)NO [Vorinostat] (partner 1 µM)
How it was run: as §1

Dactolisib + Navitoclax = compound: Cn1c(=O)n(-c2ccc(C(C)(C)C#N)cc2)c2c3cc(-c4cnc5ccccc5c4)ccc3ncc21 [Dactolisib] + CC1(C)CCC(c2ccc(Cl)cc2)=C(CN2CCN(c3ccc(C(=O)NS(=O)(=O)c4ccc(N[C@H](CCN5CCOCC5)CSc5ccccc5)c(S(=O)(=O)C(F)(F)F)c4)cc3)CC2)C1 [Navitoclax] (partner 0.5 µM)
How it was run: as §1

| Cell Line | relative viability (AZ505 + Foretinib; first compound 0.08 µM) | relative viability (AZ505 + Foretinib; first compound 0.253 µM) | relative viability (AZ505 + Foretinib; first compound 0.8 µM) | relative viability (AZ505 + Foretinib; first compound 2.53 µM) | relative viability (AZ505 + Foretinib; first compound 8 µM) | relative viability (Dactolisib + Trametinib; first compound 0.002 µM) | relative viability (Dactolisib + Trametinib; first compound 0.006325 µM) | relative viability (Dactolisib + Trametinib; first compound 0.02 µM) | relative viability (Dactolisib + Trametinib; first compound 0.06325 µM) | relative viability (Dactolisib + Trametinib; first compound 0.2 µM) | relative viability (AZ505 + Vorinostat; first compound 0.8 µM) | relative viability (AZ505 + Vorinostat; first compound 2.53 µM) | relative viability (AZ505 + Vorinostat; first compound 8 µM) | relative viability (Dactolisib + Navitoclax; first compound 0.002 µM) | relative viability (Dactolisib + Navitoclax; first compound 0.006325 µM) | relative viability (Dactolisib + Navitoclax; first compound 0.02 µM) | relative viability (Dactolisib + Navitoclax; first compound 0.06325 µM) | relative viability (Dactolisib + Navitoclax; first compound 0.2 µM) | relative viability (AZ505 + Vorinostat; first compound 0.08 µM) | relative viability (AZ505 + Vorinostat; first compound 0.253 µM) |
| --- | --- | --- | --- | --- | --- | --- | --- | --- | --- | --- | --- | --- | --- | --- | --- | --- | --- | --- | --- | --- |
| HCC-78 | 0.575 | 0.631 | 0.578 | 0.568 | 0.644 | 0.726 | 0.851 | 0.69 | 0.445 | 0.312 | 0.444 | 0.597 | 0.508 | 0.784 | 0.791 | 0.543 | 0.288 | 0.251 | – | – |
| HCC-366 | 0.926 | 0.878 | 0.889 | 0.852 | 0.924 | 0.367 | 0.299 | 0.238 | 0.107 | 0.101 | 0.344 | 0.354 | 0.377 | 1 | 0.961 | 1.07 | 0.67 | 0.498 | 0.356 | 0.393 |
| HCC-827 | 0.891 | 1.08 | 1.02 | 1.08 | 1.09 | 0.582 | 0.563 | 0.477 | 0.313 | 0.269 | 0.7 | 0.92 | 0.924 | 1.03 | 1.02 | 1.06 | 0.905 | 0.687 | 0.906 | 0.732 |
| HOP-62 | 1.06 | 1.13 | 1.03 | 1.08 | 1.13 | 0.429 | 0.349 | 0.369 | 0.23 | 0.195 | 0.658 | 0.628 | 0.732 | 1.24 | 1.08 | 1.06 | 0.353 | 0.613 | 0.607 | 0.605 |
| IA-LM | 0.921 | 1.21 | 1.07 | 1.12 | 1.42 | – | – | – | – | – | 0.933 | – | 1.17 | 0.819 | 0.579 | 0.564 | 0.116 | 0.0832 | 0.878 | – |
| LC-2-ad | 0.84 | 0.941 | 0.831 | 0.814 | 0.993 | 0.838 | 0.883 | 0.99 | 0.969 | 0.863 | 0.689 | 0.708 | 0.772 | 0.453 | – | 0.285 | 0.189 | 0.159 | 0.657 | 0.712 |
| LCLC-97TM1 | 0.874 | 0.87 | 0.888 | 0.86 | 1.02 | 0.2 | 0.187 | 0.167 | 0.135 | 0.104 | 0.748 | – | 0.984 | 0.503 | 0.33 | 0.3 | 0.202 | 0.192 | 0.625 | 0.746 |
| LCLC-103H | 0.734 | 0.857 | 0.729 | 0.848 | 0.715 | 0.664 | 0.604 | 0.581 | 0.515 | 0.42 | 0.694 | 0.695 | 0.735 | – | – | – | – | – | 0.682 | 0.689 |
| LK-2 | 1.28 | 1.34 | 1.18 | 1.08 | 1.68 | 0.609 | 0.761 | 0.554 | 0.225 | 0.21 | 0.33 | 0.405 | 0.392 | 0.773 | 0.852 | 0.639 | 0.381 | 0.282 | 0.295 | 0.318 |
